Assay results reported in PubChem BioAssay AID1963970 (Molecular Pharmacology Branch, DTP, NCI, 2024).
pIC50: −log10 of the molar value.

Tested on: 931267-113-T-J1-PDC multicell spheroid viability
Assay: Anticancer human tumor 931267-113-T-J1-PDC patient-derived colon adenocarcinoma cell line growth inhibition [PI3K]
Details: for pIC50: curve of first compound; for viability, T/C: stronger effect = lower value
Procedure, shortened: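 Viability of mixed-cell spheroids was determined after exposure to pairwise combinations, one partner being inavolisib, alpelisib, duvelisib or copanlisib. Highest tested concentration matched clinical Cmax where known and 10 microM where not, descending in half-log steps.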
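Also: viability read 7 days after compound addition.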

`Cn1ncnc1[C@H]1c2n[nH]c(=O)c3cc(F)cc(c23)N[C@@H]1c1ccc(F)cc1` + CC(Nc1ccc2c(c1)OCCn1cc(N3C(=O)OCC3C(F)F)nc1-2)C(N)=O was tested, and the pIC50 (second compound 0.00316 µM) was < 7.00, the pIC50 (second compound 0.01 µM) was < 7.00 and the pIC50 (second compound 0.0316 µM) was < 7.00. The pIC50 (second compound 0.1 µM) was < 7.00, the pIC50 (second compound 0.316 µM) was < 7.00 and the pIC50 (second compound 1 µM) was < 7.00. The viability, T/C (second compound 0.00316 µM, first compound 0.000316 µM) was 98.5%, the viability, T/C (second compound 0.00316 µM, first compound 0.001 µM) was 113% and the viability, T/C (second compound 0.00316 µM, first compound 0.00316 µM) was 104%. It also gave a viability, T/C (second compound 0.00316 µM, first compound 0.01 µM) of 111%, a viability, T/C (second compound 0.00316 µM, first compound 0.0316 µM) of 103% and a viability, T/C (second compound 0.00316 µM, first compound 0.1 µM) of 102%. For the same molecule, the viability, T/C (second compound 0.01 µM, first compound 0.000316 µM) was 114%, the viability, T/C (second compound 0.01 µM, first compound 0.001 µM) was 108% and the viability, T/C (second compound 0.01 µM, first compound 0.00316 µM) was 91.5%. It also gave a viability, T/C (second compound 0.01 µM, first compound 0.01 µM) of 114%, a viability, T/C (second compound 0.01 µM, first compound 0.0316 µM) of 104% and a viability, T/C (second compound 0.01 µM, first compound 0.1 µM) of 108%. It also gave a viability, T/C (second compound 0.0316 µM, first compound 0.000316 µM) of 109%, a viability, T/C (second compound 0.0316 µM, first compound 0.001 µM) of 96.9% and a viability, T/C (second compound 0.0316 µM, first compound 0.00316 µM) of 105%. The viability, T/C (second compound 0.0316 µM, first compound 0.01 µM) was 103%, the viability, T/C (second compound 0.0316 µM, first compound 0.0316 µM) was 108% and the viability, T/C (second compound 0.0316 µM, first compound 0.1 µM) was 102%. For the same molecule, the viability, T/C (second compound 0.1 µM, first compound 0.000316 µM) was 101%, the viability, T/C (second compound 0.1 µM, first compound 0.001 µM) was 87.5% and the viability, T/C (second compound 0.1 µM, first compound 0.00316 µM) was 86.1%. The viability, T/C (second compound 0.1 µM, first compound 0.01 µM) was 89.1%, the viability, T/C (second compound 0.1 µM, first compound 0.0316 µM) was 95.2% and the viability, T/C (second compound 0.1 µM, first compound 0.1 µM) was 87%. It also gave a viability, T/C (second compound 0.316 µM, first compound 0.000316 µM) of 95.6%, a viability, T/C (second compound 0.316 µM, first compound 0.001 µM) of 89.6% and a viability, T/C (second compound 0.316 µM, first compound 0.00316 µM) of 81.2%. The viability, T/C (second compound 0.316 µM, first compound 0.01 µM) was 80.4%, the viability, T/C (second compound 0.316 µM, first compound 0.0316 µM) was 85.1% and the viability, T/C (second compound 0.316 µM, first compound 0.1 µM) was 94.1%. For the same molecule, the viability, T/C (second compound 1 µM, first compound 0.000316 µM) was 78.2%, the viability, T/C (second compound 1 µM, first compound 0.001 µM) was 82% and the viability, T/C (second compound 1 µM, first compound 0.00316 µM) was 80.7%. It also gave a viability, T/C (second compound 1 µM, first compound 0.01 µM) of 76.9%, a viability, T/C (second compound 1 µM, first compound 0.0316 µM) of 84.6% and a viability, T/C (second compound 1 µM, first compound 0.1 µM) of 73.6%.
